From article PMC10243363 (ACS chemical neuroscience, 2022)
Where a name gives a salt, the structure may show the parent alone. Read-outs that look alike come from different tables or passages of the source.

Experiments:
MOR [1] = molecular target: T1, MOR (Mus musculus, UniProt P42866); test: [35S]-GTPγS binding assay, mMOR-CHO membrane; assay type: biochemical; settings: for MOR %Emax: %Emax = 100 defined using Emax of 3 μM DAMGO; for MOR %Emax / EC50: mean ± SEM; for EC50: read-out: MOR EC50
DOR = DOR (Mus musculus, UniProt P32300); test: [35S]-GTPγS binding assay, mDOR-CHO membrane; assay type: biochemical; settings: for DOR %Emax: %Emax = 100 defined using 5 μM SNC80; for DOR %Emax / EC50: mean ± SEM; for EC50: read-out: DOR EC50
KOR [2] = molecular target: T2, KOR (Mus musculus, UniProt P33534); test: [35S]-GTPγS binding assay, mKOR-CHO membrane; assay type: biochemical; settings: mean ± SEM; for KOR %Emax: %Emax = 100 defined using 5 μM U50,488H; for EC50: read-out: KOR EC50
MOR [3] = molecular target: T1, MOR; test: Competitive radioligand binding assay, MOR; settings: ratio of Ki DOR/MOR
mice [4] = test: Warm-water tail immersion; assay type: in vivo, mouse; settings: for Antinociceptive effect (%MPE) in single-dose screening: 20 min, vs vehicle; for Antinociception potency ED50 (95% CL): 20 min after injection; for Time of peak antinociceptive effect: time-course study; for Blocking of the antinociception of 0.1 mg/kg NMF by selective antagonist: nor-BNI, β-FNA 10 mg/kg s.c. 24 h prior, NTI 15 mg/kg s.c. 30 min prior
KOR [5] = molecular target: T2, KOR; test: Competitive radioligand binding assay, KOR; settings: for Selectivity D/K: ratio of Ki DOR/KOR; for Selectivity M/K: ratio of Ki MOR/KOR
mice [6] = test: Spontaneous locomotor activity; settings: 30 min
rats = settings: rat, in vivo, iv
Caco-2 cell monolayer = test: Caco-2 permeability assay; settings: 10 μM; ± SEM
mice [7] = test: Tolerance and cross tolerance; settings: day 5; 0.1 mg/kg NMF vs 10 mg/kg morphine
mice [8] = test: Respiration by whole-body plethysmography; assay type: in vivo, mouse; settings: 0.1 mg/kg
mice [9] = settings: cited from earlier work
monkeys = settings: 0.001 mg/kg; cited from earlier work
[10] = 0.003 mg/kg; cited from earlier work
[11] = 0.03 mg/kg; cited from earlier work
[12] = Caco-2 permeability assay; settings: human, Caco-2
[13] = cited from earlier work
[14] = Weight change under chronic administration; settings: 10 mg/kg s.c. twice daily, mice
[15] = cited from earlier work; remark: listed apart in the source

Row | Compound | MOR %Emax (MOR [1]) | EC50 (MOR [1]) | DOR %Emax (DOR) | EC50 (DOR) | KOR %Emax (KOR [2]) | EC50 (KOR [2]) | Selectivity D/M (MOR [3]) | Selectivity D/K (KOR [5]) | Selectivity M/K (KOR [5]) | also measured
1 | Cl.O=C(/C=C/c1ccoc1)N[C@H]1CC[C@@]2(O)[C@H]3Cc4ccc(O)c5c4[C@@]2(CCN3CC2CC2)[C@H]1O5 [Compound 9, (2E)-N-[6α-17-(Cyclopropylmethyl)-3,14-dihydroxy-4,5α-epoxy-morphinan-6-yl]-3-(3-furanyl)-2-propenamide hydrochloride] | 25.9 ± 1.0% | 0.00841 ± 0.00098 µM | 108 ± 6% | 0.0836 ± 0.0288 µM | 73.7 ± 2.5% | 0.0153 ± 0.0019 µM | 16 | 10 | 0.6 | Antinociceptive effect (%MPE) in single-dose screening (mice [4]; 10 mg/kg s.c., mice): no significant increase of %MPE
2 | Cl.O=C(/C=C/c1ccoc1)N[C@@H]1CC[C@@]2(O)[C@H]3Cc4ccc(O)c5c4[C@@]2(CCN3CC2CC2)[C@H]1O5 [Compound 10, (2E)-N-[6β-17-(Cyclopropylmethyl)-3,14-dihydroxy-4,5α-epoxy-morphinan-6-yl]-3-(3-furanyl)-2-propenamide hydrochloride] | 40.8 ± 2.2% | 0.00136 ± 0.00014 µM | 103 ± 11% | 0.0248 ± 0.0047 µM | 95.2 ± 4.9% | 0.00036 ± 2e-05 µM | 15 | 26 | 1.8 | Antinociception potency ED50 (95% CL) (mice [4]; mice, s.c.): 2.414 (1.720 - 3.388) mg/kg
3 | CN(C(=O)/C=C/c1ccoc1)[C@@H]1CC[C@@]2(O)[C@H]3Cc4ccc(O)c5c4[C@@]2(CCN3CC2CC2)[C@H]1O5.Cl [Compound 11, (2E)-N-[6β-17-(Cyclopropylmethyl)-3,14-dihydroxy-4,5α-epoxy-morphinan-6-yl]-3-(3-furanyl)-N-methyl-2-propenamide hydrochloride] |  |  |  |  |  |  |  |  |  | Activity-reducing (sedative) effects on locomotor activity (mice [6]; 0.1 mg/kg or 0.5 mg/kg s.c.): no significant activity-reducing effects; Hyperactivity in locomotor activity test (mice [6]; s.c.): no significant hyperactivity; Reinforcing effect in self-administration (number of infusions vs saline) (rats): non-reinforcer; B-A Permeability (Caco-2 cell monolayer): 31.8 ± 0.8 x10^−6 cm/s; Duration of antinociception (mice [4]; 0.1 mg/kg s.c., mice): approximately 3 hours; Calculated ED90 of antinociception (mice [4]; mice, s.c.): 0.1 mg/kg; Antinociception potency ED50 (95% CL) (mice [4]; mice, s.c.): 0.037 (0.014 - 0.096) mg/kg; Time of peak antinociceptive effect (mice [4]; s.c., mice): around 0.5 h; Antinociceptive effect in morphine-tolerated mice (cross tolerance) (mice [7]): retained a higher antinociceptive effect than morphine; Effects on respiration (frequency, minute volume, tidal volume) (mice [8]): no significant effects on the respiration
4 | CN(C(=O)/C=C/c1ccoc1)[C@@H]1CC[C@@]2(O)[C@H]3Cc4ccc(O)c5c4[C@@]2(CCN3CC2CC2)[C@H]1O5 [Compound 12, (2E)-N-[6β-17-(Cyclopropylmethyl)-3,14-dihydroxy-4,5α-epoxy-morphinan-6-yl]-3-(3-furanyl)-N-methyl-2-propenamide hydrochloride] |  |  | moderate-to-high efficacy |  |  |  |  |  |  | Antinociceptive effect in morphine-tolerated mice (mice [9]): retained its antinociceptive effect; Emax (MOR [1]; read-out: MOR %Emax): 30.3 ± 3.7%; Emax (DOR; read-out: DOR %Emax): 65.7 ± 6.4%; Respiratory depression (monkeys): did not induced respiratory depression; Action time [10]: 3 to 4 h; Action time [11]: less than 2 hours
5 | Cl.O=C(/C=C/c1ccoc1)N[C@H]1CC[C@@]2(O)[C@H]3Cc4cccc5c4[C@@]2(CCN3CC2CC2)[C@H]1O5 [Compound 13, (2E)-N-[6α-17-(Cyclopropylmethyl)-4,5α-epoxy-14-hydroxy-morphinan-6-yl]-3-(3-furanyl)-2-propenamide hydrochloride] | 22.8 ± 2.1% | 0.283 ± 0.049 µM | 102 ± 8% | 0.714 ± 0.087 µM | 103 ± 2% | 0.135 ± 0.025 µM | 0.9 | 1.7 | 1.9 | Antinociceptive effect (%MPE) in single-dose screening (mice [4]; 10 mg/kg s.c., mice): absence of antinociception
6 | Cl.O=C(/C=C/c1ccoc1)N[C@@H]1CC[C@@]2(O)[C@H]3Cc4cccc5c4[C@@]2(CCN3CC2CC2)[C@H]1O5 [Compound 14, (2E)-N-[6β-17-(Cyclopropylmethyl)-4,5α-epoxy-14-hydroxy-morphinan-6-yl]-3-(3-furanyl)-2-propenamide hydrochloride] | 27.7 ± 1.1% | 0.167 ± 0.023 µM | 107 ± 13% | 1.5 ± 0.14 µM | 97.9 ± 2.4% | 0.046 ± 0.0068 µM | 14 | 345 | 26 | Antinociception potency ED50 (95% CL) (mice [4]; mice, s.c.): 3.827 (1.224 -11.97) mg/kg
7 | CN(C(=O)/C=C/c1ccoc1)[C@H]1CC[C@@]2(O)[C@H]3Cc4cccc5c4[C@@]2(CCN3CC2CC2)[C@H]1O5.Cl [Compound 15, (2E)-N-[6a-17-(Cyclopropylmethyl)-4,5a-epoxy-14-hydroxy-morphinan-6-yl]-3-(3-furanyl)-N-methyl-2-propenamide hydrochloride] | 55.8 ± 2.9% | 0.132 ± 0.01 µM | 108 ± 7% | 0.242 ± 0.028 µM | 98.4 ± 2.4% | 0.00252 ± 0.00038 µM | 12 | 249 | 21 | Antinociception potency ED50 (95% CL) (mice [4]; mice, s.c.): 0.341 (0.196 - 0.604) mg/kg
8 | CN(C(=O)/C=C/c1ccoc1)[C@@H]1CC[C@@]2(O)[C@H]3Cc4cccc5c4[C@@]2(CCN3CC2CC2)[C@H]1O5.Cl [Compound 16, (2E)-N-[6β-17-(Cyclopropylmethyl)-4,5α-epoxy-14-hydroxy-morphinan-6-yl]-3-(3-furanyl)-N-methyl-2-propenamide hydrochloride] | 17.5 ± 4.4% | 1.8 ± 1.1 µM | 107 ± 8% | 2.1 ± 0.4 µM | 94.6 ± 2.9% | 0.059 ± 0.0071 µM | 8.1 | 343 | 42 | Antinociception potency ED50 (95% CL) (mice [4]; mice, s.c.): 1.610 (1.057 - 2.452) mg/kg
9 | CC(CCc1ccccc1)NCC(O)c1ccc(O)c(C(N)=O)c1 (stereo not drawn) [Labetalol] |  |  |  |  |  |  |  |  |  | Papp A→B at 10 µM [12]: 185 ± 3 nm/s; Papp B→A at 10 µM [12]: 342 ± 4 nm/s; %fa: extent of absorption in humans [13]: 90%; %fa: extent of absorption in humans ([13]; listed as labetalol): 90%
10 | CN1CC[C@]23c4c5ccc(O)c4O[C@H]2[C@@H](O)C=C[C@H]3[C@H]1C5 [Morphine, reference compound] |  |  |  |  |  |  |  |  |  | Weight change [14]: lost weight significantly after only one day; Duration of antinociception (mice [4]; 10 mg/kg s.c., mice): approximately 3 hours; Time of peak antinociceptive effect (mice [4]; s.c., mice): around 0.5 h
11 | Oc1ccc2c3c1O[C@H]1c4[nH]c5ccccc5c4C[C@@]4(O)[C@@H](C2)N(CC2CC2)CC[C@]314 [NTI, reference compound] |  |  |  |  |  |  |  |  |  | Blocking of the antinociception of 0.1 mg/kg NMF by selective antagonist (mice [4]): able to reduce the antinociception
12 | CC(C)NCC(O)COc1cccc2ccccc12 (stereo not drawn) [Propranolol] |  |  |  |  |  |  |  |  |  | Papp A→B at 10 µM [12]: 238 ± 4 nm/s; Papp B→A at 10 µM [12]: 256 ± 7 nm/s
13 | CNC(=C[N+](=O)[O-])NCCSCc1ccc(CN(C)C)o1 [Ranitidine] |  |  |  |  |  |  |  |  |  | Papp A→B at 10 µM [12]: 5 ± 0.2 nm/s; %fa: extent of absorption in humans [13]: 50%
14 | Oc1ccc2c3c1O[C@H]1c4[nH]c5c(c4C[C@@]4(O)[C@@H](C2)N(CC2CC2)CC[C@]314)C[C@@]1(O)[C@H]2Cc3ccc(O)c4c3[C@@]1(CCN2CC1CC1)[C@H]5O4 [nor-BNI, reference compound] |  |  |  |  |  |  |  |  |  | Blocking of the antinociception of 0.1 mg/kg NMF by selective antagonist (mice [4]): able to reduce the antinociception
15 | CC[C@@H]1CN2CCc3c([nH]c4cccc(OC)c34)[C@H]2C[C@@H]1/C(=C\OC)C(=O)OC [speciociliatine] |  |  |  |  |  |  |  |  |  | PPB [15]: 90-99%
16 | COC(=O)/C=C/C(=O)N[C@@H]1CC[C@@]2(O)[C@H]3Cc4ccc(O)c5c4[C@@]2(CCN3CC2CC2)[C@H]1O5 [β-FNA, reference compound] |  |  |  |  |  |  |  |  |  | Blocking of the antinociception of 0.1 mg/kg NMF by selective antagonist (mice [4]): not able to block the antinociception
17 | mitragynine |  |  |  |  |  |  |  |  |  | PPB [15]: 90-99%
